Bridge positions count the residues as written; N and C are the ends. Peptide text beside a SMILES is read from it.
Test system: Escherichia coli W3110
Assay type: cell-based
Details: W3110

| Compound | MIC [µg/mL] | W3110 MIC MH [µg/mL] | W3110 MIC RPMI [µg/mL] |
| --- | --- | --- | --- |
| Protegrin-1 [reference compound] | 0.5 to 4 | 0.5 | 0.5 |

Test system: Acinetobacter baumannii AB5075
Details: 100% fetal bovine serum; median of triplicate
Procedure: MICs were performed by a modifiedClinical and Laboratory Standards Institute) procedure. […] Separately, E. coli W3110 or A. baumannii AB5075 was grown overnight in 5 ml of standard MH at 37°C. Cells from these cultures were diluted to a concentration of 5 × 10^5 to 6 × 10^5 cells/ml in either standard MH, MHII, RPMI, or fetal bovine serum, and 90 μl was added to each well of the 96-well plate containing diluted peptide. Plates were wrapped twice in parafilm and incubated at 37°C for 18 to 24 hours. Wells were examined by eye against wells with no bacteria for signs of growth. MICs were reported as the minimum concentration with no observable growth. In cases where triplicate samples differed, the concentration supported by the median of the three replicates was reported. […]
For consistency, all SynCH peptides were resuspended at 10 mg/ml in water. Peptides were then visually inspected for any lack of solubility (Data File S1). […]
We had this library commercially synthesized and tested its ability to inhibit the growth of Acinetobacter baumannii AB5075, a clinically isolated Carbapenem Resistant Acinetobacter (CRA) pathogen. MICs were performed in MH as well as 100% FBS, which is likely more representative of the in vivo environment. […]

| Compound | AB5075 MIC FBS [µg/mL] |
| --- | --- |
| Protegrin-1 [reference compound] | 32 |

Same assay, conditions: AB5075

| Compound | AB5075 MIC FBS [µg/mL] | AB5075 MIC MH [µg/mL] |
| --- | --- | --- |
| CC(C)C[C@@H]1NC(=O)[C@H](CCCNC(=N)N)NC(=O)[C@H](C(C)C)NC(=O)[C@H](CCCNC(=N)N)NC(=O)[C@H](CC(C)C)NC(=O)[C@@H](N)CSSC[C@@H](C(=O)O)NC(=O)[C@H](C(C)C)NC(=O)[C@H](CCCNC(=N)N)NC(=O)[C@H](CC(C)C)NC(=O)[C@H](CO)NC(=O)[C@H](C(C)C)NC(=O)[C@H](CCCCN)NC(=O)[C@H](C(C)C)NC(=O)[C@H](CCCNC(=N)N)NC(=O)CNC(=O)[C@H](CCCNC(=N)N)NC(=O)[C@H](CCCNC(=N)N)NC(=O)[C@H](CC(N)=O)NC(=O)[C@H](CCCNC(=N)N)NC1=O [SySA-5.1] (H-CLRVRLRNRRGRVKVSLRVC-OH; disulfide 1-20) | 128 | 8 |
| CC(C)C[C@@H]1NC(=O)[C@H](CCCNC(=N)N)NC(=O)[C@H](C(C)C)NC(=O)[C@H](CCCNC(=N)N)NC(=O)[C@H](CC(C)C)NC(=O)[C@@H](N)CSSC[C@@H](C(=O)O)NC(=O)[C@H](C(C)C)NC(=O)[C@H](CCCNC(=N)N)NC(=O)[C@H](CC(C)C)NC(=O)[C@H](CCCNC(=N)N)NC(=O)[C@H](C(C)C)NC(=O)[C@H](CCCCN)NC(=O)[C@H](C(C)C)NC(=O)[C@H](CCCNC(=N)N)NC(=O)[C@H](CCCNC(=N)N)NC(=O)[C@H](CCCNC(=N)N)NC(=O)[C@H](CCCNC(=N)N)NC(=O)[C@H](CC(N)=O)NC(=O)[C@H](CCCNC(=N)N)NC1=O [SySA-5.2] (H-CLRVRLRNRRRRVKVRLRVC-OH; disulfide 1-20) | > 128 | 4 |
| CC(C)C[C@@H]1NC(=O)[C@H](CO)NC(=O)[C@H](C(C)C)NC(=O)[C@H](CCCCN)NC(=O)[C@H](C(C)C)NC(=O)[C@H](CCCNC(=N)N)NC(=O)CNC(=O)[C@H](CCCNC(=N)N)NC(=O)[C@H](CCCNC(=N)N)NC(=O)[C@H](CC(N)=O)NC(=O)[C@H](CC(N)=O)NC(=O)[C@H](CC(C)C)NC(=O)[C@H](CCCNC(=N)N)NC(=O)[C@H](C(C)C)NC(=O)[C@H](CCCNC(=N)N)NC(=O)[C@@H](N)CSSC[C@@H](C(=O)O)NC(=O)[C@H](CCC(N)=O)NC1=O [SySA-5.5] (H-CRVRLNNRRGRVKVSLQC-OH; disulfide 1-18) | > 128 | 8 |
| CC(C)C[C@@H]1NC(=O)[C@H](CO)NC(=O)[C@H](C(C)C)NC(=O)[C@H](CCCCN)NC(=O)[C@H](C(C)C)NC(=O)[C@H](CCCNC(=N)N)NC(=O)CNC(=O)[C@H](CCCNC(=N)N)NC(=O)[C@H](CCCNC(=N)N)NC(=O)[C@H](CC(N)=O)NC(=O)[C@H](CCCNC(=N)N)NC(=O)[C@H](CC(C)C)NC(=O)[C@H](CCCNC(=N)N)NC(=O)[C@H](C(C)C)NC(=O)[C@H](CCCNC(=N)N)NC(=O)[C@@H](N)CSSC[C@@H](C(=O)O)NC(=O)[C@H](CCCNC(=N)N)NC1=O [SySA-5.6] (H-CRVRLRNRRGRVKVSLRC-OH; disulfide 1-18) | 128 | 4 |
| CC(C)C[C@@H]1NC(=O)[C@H](CCCNC(=N)N)NC(=O)[C@H](C(C)C)NC(=O)[C@H](CCCCN)NC(=O)[C@H](C(C)C)NC(=O)[C@H](CCCNC(=N)N)NC(=O)[C@H](CCCNC(=N)N)NC(=O)[C@H](CCCNC(=N)N)NC(=O)[C@H](CCCNC(=N)N)NC(=O)[C@H](CC(N)=O)NC(=O)[C@H](CCCNC(=N)N)NC(=O)[C@H](CC(C)C)NC(=O)[C@H](CCCNC(=N)N)NC(=O)[C@H](C(C)C)NC(=O)[C@H](CCCNC(=N)N)NC(=O)[C@@H](N)CSSC[C@@H](C(=O)O)NC(=O)[C@H](CCCNC(=N)N)NC1=O [SySA-5.7] (H-CRVRLRNRRRRVKVRLRC-OH; disulfide 1-18) | > 128 | 8 |
| CC(C)C[C@@H]1NC(=O)[C@H](CO)NC(=O)[C@H](C(C)C)NC(=O)[C@H](CCCCN)NC(=O)[C@H](CCCNC(=N)N)NC(=O)CNC(=O)[C@H](CCCNC(=N)N)NC(=O)[C@H](CCCNC(=N)N)NC(=O)[C@H](CC(N)=O)NC(=O)[C@H](CC(C)C)NC(=O)[C@H](CCCNC(=N)N)NC(=O)[C@H](C(C)C)NC(=O)[C@H](CCCNC(=N)N)NC(=O)[C@H](CC(C)C)NC(=O)[C@@H](N)CSSC[C@@H](C(=O)O)NC(=O)[C@H](C(C)C)NC(=O)[C@H](CCC(N)=O)NC1=O [SySA-5.10] (H-CLRVRLNRRGRKVSLQVC-OH; disulfide 1-18) | 128 | 4 |
| CC(C)C[C@@H]1NC(=O)[C@H](CCCNC(=N)N)NC(=O)[C@H](C(C)C)NC(=O)[C@H](CCCCN)NC(=O)[C@H](CCCNC(=N)N)NC(=O)CNC(=O)[C@H](CCCNC(=N)N)NC(=O)[C@H](CCCNC(=N)N)NC(=O)[C@H](CCCNC(=N)N)NC(=O)[C@H](CC(C)C)NC(=O)[C@H](CCCNC(=N)N)NC(=O)[C@H](C(C)C)NC(=O)[C@H](CCCNC(=N)N)NC(=O)[C@H](CC(C)C)NC(=O)[C@@H](N)CSSC[C@@H](C(=O)O)NC(=O)[C@H](C(C)C)NC(=O)[C@H](CCC(N)=O)NC1=O [SySA-5.11] (H-CLRVRLRRRGRKVRLQVC-OH; disulfide 1-18) | 64 | 4 |
| CC(C)C[C@@H]1NC(=O)[C@H](CO)NC(=O)[C@H](C(C)C)NC(=O)[C@H](CCCCN)NC(=O)[C@H](CCCNC(=N)N)NC(=O)[C@H](CCCNC(=N)N)NC(=O)[C@H](CCCNC(=N)N)NC(=O)[C@H](CC(N)=O)NC(=O)[C@H](CC(C)C)NC(=O)[C@H](CCCNC(=N)N)NC(=O)[C@H](C(C)C)NC(=O)[C@H](CCCNC(=N)N)NC(=O)[C@H](CC(C)C)NC(=O)[C@@H](N)CSSC[C@@H](C(=O)O)NC(=O)[C@H](C(C)C)NC(=O)[C@H](CCC(N)=O)NC1=O [SySA-5.18] (H-CLRVRLNRRRKVSLQVC-OH; disulfide 1-17) | 128 | 8 |
| CC(C)C[C@@H]1NC(=O)[C@H](CCCNC(=N)N)NC(=O)[C@H](C(C)C)NC(=O)[C@H](CCCCN)NC(=O)[C@H](CCCNC(=N)N)NC(=O)[C@H](CCCNC(=N)N)NC(=O)[C@H](CCCNC(=N)N)NC(=O)[C@H](CCCNC(=N)N)NC(=O)[C@H](CC(C)C)NC(=O)[C@H](CCCNC(=N)N)NC(=O)[C@H](C(C)C)NC(=O)[C@H](CCCNC(=N)N)NC(=O)[C@H](CC(C)C)NC(=O)[C@@H](N)CSSC[C@@H](C(=O)O)NC(=O)[C@H](C(C)C)NC(=O)[C@H](CCC(N)=O)NC1=O [SySA-5.19] (H-CLRVRLRRRRKVRLQVC-OH; disulfide 1-17) | > 128 | 4 |
| CC(C)C[C@@H]1NC(=O)[C@H](CCCNC(=N)N)NC(=O)[C@H](C(C)C)NC(=O)[C@H](CCCCN)NC(=O)[C@H](CCCNC(=N)N)NC(=O)[C@H](CCCNC(=N)N)NC(=O)[C@H](CCCNC(=N)N)NC(=O)[C@H](CCCNC(=N)N)NC(=O)[C@H](CC(C)C)NC(=O)[C@H](CCCNC(=N)N)NC(=O)[C@H](C(C)C)NC(=O)[C@H](CCCNC(=N)N)NC(=O)[C@H](CC(C)C)NC(=O)[C@@H](N)CSSC[C@@H](C(=O)O)NC(=O)[C@H](C(C)C)NC(=O)[C@H](CCCNC(=N)N)NC1=O [SySA-5.20] (H-CLRVRLRRRRKVRLRVC-OH; disulfide 1-17) | 128 | 4 |
| CC(C)C[C@@H]1NC(=O)[C@H](CO)NC(=O)[C@H](C(C)C)NC(=O)[C@H](CCCCN)NC(=O)[C@H](CCCNC(=N)N)NC(=O)CNC(=O)[C@H](CCCNC(=N)N)NC(=O)[C@H](CCCNC(=N)N)NC(=O)[C@H](CC(N)=O)NC(=O)[C@H](CC(C)C)NC(=O)[C@H](CCCNC(=N)N)NC(=O)[C@H](C(C)C)NC(=O)[C@H](CCCNC(=N)N)NC(=O)[C@@H](N)CSSC[C@@H](C(=O)O)NC(=O)[C@H](CCC(N)=O)NC1=O [SySA-5.23] (H-CRVRLNRRGRKVSLQC-OH; disulfide 1-16) | > 128 | 8 |
| CC(C)C[C@@H]1NC(=O)[C@H](CO)NC(=O)[C@H](C(C)C)NC(=O)[C@H](CCCCN)NC(=O)[C@H](CCCNC(=N)N)NC(=O)CNC(=O)[C@H](CCCNC(=N)N)NC(=O)[C@H](CCCNC(=N)N)NC(=O)[C@H](CCCNC(=N)N)NC(=O)[C@H](CC(C)C)NC(=O)[C@H](CCCNC(=N)N)NC(=O)[C@H](C(C)C)NC(=O)[C@H](CCCNC(=N)N)NC(=O)[C@@H](N)CSSC[C@@H](C(=O)O)NC(=O)[C@H](CCCNC(=N)N)NC1=O [SySA-5.24] (H-CRVRLRRRGRKVSLRC-OH; disulfide 1-16) | > 128 | 16 |

Same assay, conditions: Mueller-Hinton; median of triplicate

| Compound | AB5075 MIC MH [µg/mL] |
| --- | --- |
| Protegrin-1 [reference compound] | 1 |

From PMC9833666, “Designing and identifying β-hairpin peptide macrocycles with antibiotic potential” (Science Advances, 2023)
